Measured values as given in US20180002288A1, “USE OF PICOLINAMIDES AS FUNGICIDES” (DOW AGROSCIENCES LLC, priority 2014, published 2018).
Where two headings read alike, the source gives them in different places.

Tests used:
[1] = system: Phakopsora pachyrhizi; test: Asian Soybean Rust fungicidal activity (PHAKPA); conditions: for pest or weed control at 25 ppm: Phakopsora pachyrhizi, in Glycine max
[2] = system: Zymoseptoria tritici; test: Leaf Blotch of Wheat fungicidal activity (SEPTTR); format: in vivo; conditions: Low Volume Cereal Activity at 121.5 g/Ha
[3] = system: Puccinia triticina; test: Wheat Brown Rust fungicidal activity (PUCCRT); format: in vivo; conditions: Low Volume Cereal Activity at 121.5 g/Ha
[4] = 24 h, read-out: PHAKPA 1DP % Control rating, soybean, high volume, 25 ppm, 1 Day Protectant
[5] = 72 h, read-out: PHAKPA 3DC % Control rating, soybean, high volume, 25 ppm, 3 Day Curative
[6] = 24 h, 1 Day Protectant, read-out: SEPTTR 1DP (Wheat Leaf Blotch, 1 Day Protectant)
[7] = 72 h, 3 Day Curative, read-out: SEPTTR 3DC (Wheat Leaf Blotch, 3 Day Curative)
[8] = 24 h, 1 Day Protectant, read-out: PUCCRT 1DP (Wheat Brown Rust, 1 Day Protectant)
[9] = 72 h, 3 Day Curative, read-out: PUCCRT 3DC (Wheat Brown Rust, 3 Day Curative)

Structure (SMILES) | pest or weed control at 25 ppm [1, 4] [%] | pest or weed control at 25 ppm [1, 5] [%] | pest or weed control at 121.5 g/ha [2, 6] [%] | pest or weed control at 121.5 g/ha [2, 7] [%] | pest or weed control at 121.5 g/ha [3, 8] [%] | pest or weed control at 121.5 g/ha [3, 9] [%] | PHAKPA 3DC % Control rating ([1]; soybean, high volume, 25 ppm, 3 Day Curative)
COc1cc(F)ccc1[C@H](OC1CC1)[C@H](C)OC(=O)[C@H](C)NC(=O)c1nccc(OC)c1OC(C)=O [Example 298] | > 80 | < 80 | < 80 | < 0 | < 80 | > 80 | 
COc1ccnc(C(=O)N[C@@H](C)C(=O)O[C@@H](C)[C@H](Oc2ccccc2)c2cccc3ccccc23)c1OCOC(C)=O [Example 262] | > 80 | < 0 | > 80 | > 80 | > 80 | > 80 | 
COc1ccnc(C(=O)N[C@@H](C)C(=O)O[C@@H](C)[C@H](OCC2CC2)c2ccccc2)c1OC(C)=O [Example 233] | > 80 | < 80 | > 80 | > 80 | > 80 | > 80 | 
COc1cc(F)ccc1[C@@H](OCC(F)F)[C@H](C)OC(=O)[C@H](C)NC(=O)c1nccc(OC)c1OC(C)=O [Example 294] | < 80 | < 80 | > 80 | > 80 | < 80 | < 80 | 
COc1cc(C)ccc1[C@@H](Oc1ccc(C)cc1)[C@H](C)OC(=O)[C@H](C)NC(=O)c1nccc(OC)c1OC(C)=O [Example 274] | < 80 | < 0 | > 80 | > 80 | > 80 | < 80 | 
COc1cc(F)ccc1[C@@H](Oc1ccccc1)[C@H](C)OC(=O)[C@H](C)NC(=O)c1nccc(OC)c1OC(C)=O [Example 269] | > 80 |  | > 80 | > 80 | > 80 | > 80 | B (≦80)
COc1cc(F)ccc1[C@@H](OC(=O)C(C)(C)C)[C@H](C)OC(=O)[C@H](C)NC(=O)c1nccc(OC)c1OC(C)=O [Example 296] | < 80 | < 80 | > 80 | > 80 | > 80 | < 0 | 
COc1ccnc(C(=O)N[C@@H](C)C(=O)O[C@@H](C)[C@H](Oc2ccccc2)c2ccccc2)c1OC(C)=O [Example 184] | < 80 | < 80 | > 80 | > 80 | > 80 | > 80 | 
COc1cc(F)ccc1[C@@H](OCC1CC1)[C@H](C)OC(=O)[C@H](C)NC(=O)c1nccc(OC)c1OC(C)=O [Example 295] | > 80 | < 80 | > 80 | > 80 | > 80 | < 80 | 
COc1ccnc(C(=O)N[C@@H](C)C(=O)O[C@@H](C)[C@@H](OC)c2ccccc2)c1OCOC(C)=O [Example 230] | < 80 | < 80 | < 0 | > 80 | > 80 | > 80 | 
CCOc1cc(F)ccc1[C@@H](Oc1ccccc1)[C@H](C)OC(=O)[C@H](C)NC(=O)c1nccc(OC)c1OC(C)=O [Example 265] | < 80 | < 0 | > 80 | > 80 | > 80 | > 80 | 
COc1ccnc(C(=O)N[C@@H](C)C(=O)O[C@@H](C)[C@H](OCC2CC2)c2cccc(-c3ccccc3)c2)c1OCOC(C)=O [Example 220] | > 80 | < 80 | < 80 | > 80 | > 80 | > 80 | 
COc1ccnc(C(=O)N[C@@H](C)C(=O)O[C@@H](C)[C@H](Oc2ccccc2)c2ccc(F)cc2)c1OCOC(C)=O [Example 241] | > 80 | < 0 | > 80 | > 80 | > 80 | > 80 | 
COc1ccnc(C(=O)N[C@@H](C)C(=O)O[C@@H](C)[C@H](Oc2ccccc2)c2ccc(F)cc2Oc2ccccc2)c1OC(C)=O [Example 275] | < 80 | < 0 | > 80 | < 80 | > 80 | > 80 | 
